According to US10421820B2, “Bruton's tyrosine kinase as anti-cancer drug target” (The Research Foundation for The State University of New York, priority 2008, dated 2019):
“Also recorded” adds a separate entry of the source.

Legend:
[1] = tested on: HER2+ breast cancer cells; experiment: Growth factor-driven lapatinib resistance in HER2+ breast cancer cells (NRG, EGF); format: cell-based, human
MDA-MB-231 cells = experiment: MDA-MB-231 tail vein metastasis model in NOD/SCID mice; format: in vivo; conditions: 12 mg/kg per day, oral
Protocol: FIG. 24A-24D. […] (24A) 10^6 MDA-MB-231 cells in 100 μl PBS were injected into the tail vein of 4-5 week old female NOD/SCID mice (Jackson Labs). Injected animals were randomly assigned to control or experimental groups. Starting at time of tail vein injection, mice were treated with vehicle or ibrutinib (12 mg/kg per day, oral). At end point, mice were euthanized and bones and organs collected for histological analysis. Note that all bone metastases in control groups led to the development of paralysis (5/16, n=16 per group). […] Thin section of a tumor arising in an untreated control animal.
More specifically, 10^6 MDA-MB-231 (Her2-) cells in 100 μl PBS were injected into the tail vein of 4-5 week old female NOD/SCID mice (Jackson Labs). Injected animals were randomly assigned to control or experimental groups. Starting at time of tail vein injection, mice were treated with vehicle or ibrutinib (12 mg/kg per day, oral). At end point, mice were euthanized then bones and organs collected for histological analysis. Note that bone metastases in control groups led to the development of paralysis (5/16, n=16 per group).

SKBR3 xenograft = SKBR3 xenograft tumor growth in NOD/SCID mice (mammary fat pad injection); format: in vivo; conditions: 12 mg/kg, day 28, p<0.01
[2] = tested on: MCF-10A cells over-expressing BTK-C; conditions: 35 μM LFM-A13 for 24
10A-BTK-C cells = experiment: 2-NBDG glucose uptake in MCF-10A cells over-expressing BTK-C; format: cell-based, human; conditions: LFM-A13 for 24 hours
Protocol: (§1) FIG. 15A-15D. BTK-C promotes glucose uptake. […] Immunofluorescence pictures were taken in INCELL-1000; (15d) Fluorescence intensity was quantified in right. […] (15a) The effect of BTK-C on glucose uptake in breast cancer cell lines. MCF-7 and MDA-MB-361 cell lines were treated as in (15c). (15b) Fluorescence intensity shown at right panel, *p<0.01.

BTK-A and BTK-C proteins = experiment: BTK Tyr223 auto-phosphorylation, anti-Flag IP and Western blot in BT474 cells over-expressing BTK-A-flag or BTK-C-flag; format: cell-based, human
[3] = tested on: MCF-7 and MDA-MB-361 cell lines; experiment: 2-NBDG glucose uptake in breast cancer cell lines; format: cell-based, human; conditions: breast cancer cell lines that express BTK-C; LFM-A13 for 24 hours
Protocol: as §1

BT474 cells [4] = experiment: Cleaved caspase-3 apoptosis assay in BT474 cells; format: cell-based, human
Protocol: For high-throughput experiments, cells grown on 96-well plates were washed once with 1×PBS, fixed with 2.5% formaldehyde and stained with Hoechst 33342 (Molecular Probes-Invitrogen). Cell images were acquired using an In Cell Analyzer 1000 (GE Healthcare) high content imaging system, with a 20× objective. At least 50 fields were imaged per single experiment. Cell counts and statistics were then performed using the In Cell Investigator 3.4 high-content image analysis software (GE Healthcare). Apoptosis was detected by cleaved Caspase-3 after 48 h to 96 h of shRNA treatments. […] Control cells were treated with DMSO. For the cleaved caspase-3 assay, cells were fixed after treatment with 2.5% formaldehyde, washed with 1×PBS, permeabilized with 0.1% Triton-X 100 (Fisher Chemicals), blocked with 3% normal goat serum (Sigma-Aldrich), incubated with a 1:50-1:200 dilution of the primary antibody, washed with 1×PBS, incubated with a 1:800 dilution of the secondary antibody, washed again with 1×PBS and finally stained with Hoechst 33342 (Molecular Probes-Invitrogen). Cells were imaged by the In Cell Analyzer 1000 (GE Healthcare) or by a Leica TCS SP5 confocal microscope system (Leica Microsystems). At least 500 cells were counted for cleaved Caspase-3. […]

[5] = tested on: HER2, AKT and ERK phosphorylation; experiment: Immunoblots of HER2, AKT and ERK phosphorylation in SKbr3 cells with or without EGF; format: cell-based, human; conditions: 1 μM, EGF 50 ng/ml, 3 hours
[6] = tested on: SK-Br-3 Her2/neu positive breast cancer cells; experiment: SKBR3 cell number after 72 hours with or without EGF; format: cell-based, human; conditions: 50 ng/ml EGF
BTK-C-flag protein = BTK-C-flag protein knockdown by immunoblot in HEK 293T cells with BTK-C specific siRNAs; format: cell-based, human; conditions: transfected HEK 293T cells
Protocol: (§2) FIG. 12A-12D. The BTK-C gene produces an 80 kD product. (12a) A schematic representation showing the domains of the BTK-A and predicted BTK-C protein. (12b) Total lysate from breast lines and Namalwa B-cells subjected to immunoblotting and probed with an anti-BTK antibody (BD Transduction Laboratory, 611116). (12c) HEK293 cells co-transfected with a BTK-C flag vector and either BTK-C siRNAs or Non-Target siRNA. Total lysate was prepared 96 hrs post transfection and was used for immunoblotting with anti-Flag antibody. (12d) BT474 cells were transfected with two BTK-C specific siRNAs, non-target siRNA as a control and co-transfected with GFP to mark transfected cells. Transfected cells were counted at 24 h and 96 h and the 96 hr to 24 hr ratio was calculated and expressed as % of the control.

BT474 cells [7] = experiment: BT474 viability after BTK-C specific siRNAs (GFP-marked cell counts, 96 h to 24 h ratio); format: cell-based, human
Protocol: as §2

## C=CC(=O)Nc1cccc(Nc2nc(Nc3ccc(OCCOC)cc3)ncc2F)c1 [AVL-292]
[1]
  EGFR family activation: has no effect on EGFR family activation
  NRG- and EGF-dependent growth factor-driven resistance to lapatinib: prevents NRG- and EGF-dependent growth factor-driven resistance to lapatinib

## C=CC(=O)N1CCC[C@@H](n2nc(-c3ccc(Oc4ccccc4)cc3)c3c(N)ncnc32)C1 [Ibrutinib]
MDA-MB-231 cells
  decrease of non-lung metastases: 3 fold
SKBR3 xenograft
  tumor volumes smaller than vehicle control: 45%

## C/C(O)=C(\C#N)C(=O)Nc1cc(Br)ccc1Br [LFM-A13]
[2]
  acquired resistance to Doxorubicin (1 μM): abolishes the acquired resistance to Doxorubicin
10A-BTK-C cells
  glucose uptake (2-NBDG fluorescence): inhibited
BTK-A and BTK-C proteins; 35 μM LFM-A13 for 48 h
  phosphorylation of both the BTK-A and BTK-C proteins: significantly impedes phosphorylation
BTK-A and BTK-C proteins; 100 μM LFM-A13 for 45 mins
  phosphorylation of BTK-A and BTK-C proteins (pY223): severely impeded phosphorylation; also recorded: reduces phosphorylation of BTK
[3]
  glucose uptake (2-NBDG fluorescence): inhibits glucose uptake
BT474 cells [4]; 25 uM LFM-A13, BT474 cells
  increase of apoptosis levels compared to control: 8%
BT474 cells [4]; 35 μM LFM-A13, BT474 cells, 48 h
  increase of apoptosis levels compared to control: six fold

## CS(=O)(=O)CCNCc1ccc(-c2ccc3ncnc(Nc4ccc(OCc5cccc(F)c5)c(Cl)c4)c3c2)o1 [Lapatinib]
[5]
  ERK activation in the presence of EGF: EGF counteracts lapatinib's effect, causing ERK re-activation
[6]
  effect of EGF treatment on drug activity (cell number): EGF treatment counteracts lapatinib to a much larger degree than PCI-32765

## siRNA2: BTK-C specific siRNA, sense SEQ ID NO: 68, antisense SEQ ID NO: 69 (sense CAACAAAUGGUUAUUGGAUUU; antisense AUCCAAUAACCAUUUGUUGUU; chemistry not given here; listed as Homo sapiens)
BTK-C-flag protein
  BTK-C-flag protein expression: reduce BTK-C-flag protein expression
BT474 cells [7]
  viability of BT474 cells: decrease the viability
